Measured values from ChEMBL document CHEMBL4270538, “Targeting prohibitin with small molecules to promote melanogenesis and apoptosis in melanoma cells” (Eur J Med Chem, 2018).
Activity calls are given as the source filed them. The calls are words filed in the database; no cut-off is given here.

Assays:
[1] = molecular target: Prohibitin-2 (Homo sapiens) (UniProt Q99623); assay: Induction of PHB2-mediated melanogenesis in human HBL cells assessed as pigmentation at 1 uM after 10 days relative to control; format: cell-based
[2] = molecular target: Prohibitin-2 (Homo sapiens) (UniProt Q99623); assay: Induction of PHB2-mediated melanogenesis in human HBL cells assessed as pigmentation at 10 uM after 10 days relative to control; format: cell-based
Homo sapiens [3] = organism: Homo sapiens; assay: Induction of apoptosis in human MM162 cells at 1 to 10 uM after 48 hrs by Annexin V-PE/7-AAD staining based flow cytometry; format: functional, cell-based
HBL = assay: Induction of apoptosis in human HBL cells at 1 to 10 uM after 48 hrs by Annexin V-PE/7-AAD staining based flow cytometry; format: functional, cell-based
Homo sapiens [4] = organism: Homo sapiens; assay: Induction of apoptosis in human MM043 cells at 1 to 10 uM after 48 hrs by Annexin V-PE/7-AAD staining based flow cytometry; format: functional, cell-based

Sequence of Prohibitin-2 (Homo sapiens) (Q99623 whole entry): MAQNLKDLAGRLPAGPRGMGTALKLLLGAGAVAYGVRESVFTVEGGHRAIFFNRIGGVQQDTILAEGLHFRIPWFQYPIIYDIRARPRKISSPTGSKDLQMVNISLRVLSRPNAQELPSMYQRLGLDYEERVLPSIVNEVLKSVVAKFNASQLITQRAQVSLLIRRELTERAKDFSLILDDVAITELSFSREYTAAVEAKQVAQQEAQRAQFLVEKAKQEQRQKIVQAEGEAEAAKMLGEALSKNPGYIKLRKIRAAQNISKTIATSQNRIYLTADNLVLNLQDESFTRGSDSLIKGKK

SMILES	fold change (FC) [1]	fold change (FC) [2]	Activity (Homo sapiens [3])	Activity (HBL)	Activity (Homo sapiens [4])
CNc1nc(Oc2c(F)c(F)c(F)c(F)c2F)nc(N(C)[C@H](C)c2ccccc2)n1	0.88	0.94	–	–	–
C[C@H](c1ccccc1)N(C)c1nc(NCCN(C)C)nc(Oc2c(F)c(F)c(F)c(F)c2F)n1	1.25	1.53	–	–	–
Fc1cccc(CNc2nc(NCCc3cc4ccccc4[nH]3)nc(Oc3c(F)c(F)c(F)c(F)c3F)n2)c1	1.09	1.25	–	–	–
CNc1nc(Oc2c(F)c(F)c(F)c(F)c2F)nc(N2CCCc3ccccc3C2)n1	0.8	0.86	–	–	–
CC(=O)NCCNc1nc(NCc2cccc(F)c2)nc(Oc2c(F)c(F)c(F)c(F)c2F)n1	0.91	1	–	–	–
CC(Nc1nc(NCCN(C)C)nc(Oc2c(F)c(F)c(F)c(F)c2F)n1)c1cccc(F)c1 (stereo not drawn)	0.77	0.43	–	–	–
CCC(Nc1nc(N[C@H](CC)CO)nc(Oc2c(F)c(F)c(F)c(F)c2F)n1)c1cccc(F)c1 (stereo partly drawn)	0.95	0.74	–	–	–
CC[C@H](CO)Nc1nc(N[C@H](C)c2ccccc2)nc(Oc2c(F)c(F)c(F)c(F)c2F)n1	0.94	0.83	–	–	–
C[C@@H](Nc1nc(NCCN(C)C)nc(Oc2c(F)c(F)c(F)c(F)c2F)n1)c1ccccc1	0.78	0.61	–	–	–
Nc1nc(NCc2cccc(F)c2)nc(Oc2c(F)c(F)c(F)c(F)c2F)n1	0.92	0.91	–	–	–
Fc1cccc(CNc2nc(Oc3c(F)c(F)c(F)c(F)c3F)nc(N3CCOCC3)n2)c1	0.85	0.93	–	–	–
CN1CCN(c2nc(NCc3cccc(F)c3)nc(Oc3c(F)c(F)c(F)c(F)c3F)n2)CC1	0.78	0.65	–	–	–
Fc1cccc(CNc2nc(NCc3ccccn3)nc(Oc3c(F)c(F)c(F)c(F)c3F)n2)c1	1.02	1.01	–	–	–
COCCNc1nc(NCc2cccc(F)c2)nc(Oc2c(F)c(F)c(F)c(F)c2F)n1	0.8	0.76	–	–	–
CC(C)CCNc1nc(NCc2cccc(F)c2)nc(Oc2c(F)c(F)c(F)c(F)c2F)n1	0.7	0.89	–	–	–
FC1(F)N=C(c2ccc(Cl)cc2)SC1(F)c1ccc(Cl)cc1 (stereo not drawn)	1.51	1.37	–	–	–
CNc1nc(NC(C)c2cccc(F)c2)nc(Oc2c(F)c(F)c(F)c(F)c2F)n1 (stereo not drawn)	1.01	0.84	–	–	–
CNc1nc(Oc2c(F)c(F)c(F)c(F)c2F)nc(N2CCc3ccccc3C2)n1	0.84	0.87	–	–	–
CN(C)C1CCN(c2nc(Oc3c(F)c(F)c(F)c(F)c3F)nc(N3CCCc4ccccc4C3)n2)CC1	0.83	1.51	Active	Active	Active
CC[C@H](CO)Nc1nc(Oc2c(F)c(F)c(F)c(F)c2F)nc(N2CCCc3ccccc3C2)n1	0.85	0.74	–	–	–
CN(C)c1nc(NCc2cccc(F)c2)nc(Oc2c(F)c(F)c(F)c(F)c2F)n1	1.04	1.05	–	–	–
Fc1cccc(CNc2nc(NCc3ccncc3)nc(Oc3c(F)c(F)c(F)c(F)c3F)n2)c1	0.77	0.76	–	–	–
Fc1cccc(CNc2nc(NCCNc3ccccn3)nc(Oc3c(F)c(F)c(F)c(F)c3F)n2)c1	0.97	1.09	–	–	–
C[C@@H](c1ccccc1)N(C)c1nc(NCCN(C)C)nc(Oc2c(F)c(F)c(F)c(F)c2F)n1	0.94	0.71	–	–	–
CNc1nc(NCc2cccc(F)c2)nc(Oc2c(F)c(F)c(F)c(F)c2F)n1	0.89	0.84	–	–	–

SMILES	fold change (FC) [1]	fold change (FC) [2]	Activity (Homo sapiens [3])	Activity (HBL)	Activity (Homo sapiens [4])
Fc1cccc(CNc2nc(NCCCCc3ccccc3)nc(Oc3c(F)c(F)c(F)c(F)c3F)n2)c1	0.9	1	–	–	–
CNc1nc(N[C@H](C)c2ccccc2)nc(Oc2c(F)c(F)c(F)c(F)c2F)n1	1.16	0.89	–	–	–
OCC1CCN(c2nc(NCc3cccc(F)c3)nc(Oc3c(F)c(F)c(F)c(F)c3F)n2)CC1	0.89	0.84	–	–	–
CN(C)CCNc1nc(Oc2c(F)c(F)c(F)c(F)c2F)nc(N(C)Cc2ccccc2)n1	0.98	0.99	–	–	–
CC[C@@H](CO)Nc1nc(NCc2cccc(F)c2)nc(Oc2c(F)c(F)c(F)c(F)c2F)n1	0.8	0.61	–	–	–
CC[C@H](CO)Nc1nc(Oc2c(F)c(F)c(F)c(F)c2F)nc(N(C)[C@@H](C)c2ccccc2)n1	0.96	0.89	–	–	–
CNc1nc(Oc2c(F)c(F)c(F)c(F)c2F)nc(N(C)Cc2cccc(F)c2)n1	0.84	0.78	–	–	–
CNc1nc(NCc2ccccc2)nc(Oc2c(F)c(F)c(F)c(F)c2F)n1	0.9	0.69	–	–	–
CC[C@H](CO)Nc1nc(NC(C)c2cccc(F)c2)nc(Oc2c(F)c(F)c(F)c(F)c2F)n1 (stereo partly drawn)	0.78	0.68	–	–	–
CNc1nc(Oc2c(F)c(F)c(F)c(F)c2F)nc(N(C)[C@@H](C)c2ccccc2)n1	1.01	0.86	–	–	–
Fc1cccc(CNc2nc(NCCCc3ccccc3)nc(Oc3c(F)c(F)c(F)c(F)c3F)n2)c1	1.07	1.07	–	–	–
Fc1cccc(CNc2nc(NCc3ccccc3)nc(Oc3c(F)c(F)c(F)c(F)c3F)n2)c1	0.89	1.1	–	–	–
CN(C)CCCNc1nc(Oc2c(F)c(F)c(F)c(F)c2F)nc(N2CCCc3ccccc3C2)n1	0.96	1.57	–	–	–
Fc1cccc(CNc2nc(Oc3c(F)c(F)c(F)c(F)c3F)nc(N3CCCC3)n2)c1	0.99	1.08	–	–	–
Fc1cccc(CNc2nc(NCC3CCCO3)nc(Oc3c(F)c(F)c(F)c(F)c3F)n2)c1 (stereo not drawn)	1.07	0.95	–	–	–
CC[C@H](CO)Nc1nc(Oc2c(F)c(F)c(F)c(F)c2F)nc(N(C)Cc2cccc(F)c2)n1	0.77	0.81	–	–	–
CCC(Nc1nc(NCCN(C)C)nc(Oc2c(F)c(F)c(F)c(F)c2F)n1)c1cccc(F)c1 (stereo not drawn)	0.86	0.55	–	–	–
CNc1nc(Oc2c(F)c(F)c(F)c(F)c2F)nc(N2Cc3ccccc3C2)n1	0.93	0.98	–	–	–
Fc1cccc(CNc2nc(NCCc3ccccc3)nc(Oc3c(F)c(F)c(F)c(F)c3F)n2)c1	0.9	1.11	–	–	–
O=C1CCCN1CCCNc1nc(NCc2cccc(F)c2)nc(Oc2c(F)c(F)c(F)c(F)c2F)n1	0.99	1.04	–	–	–
CCN(Cc1ccccc1)c1nc(NCCN(C)C)nc(Oc2c(F)c(F)c(F)c(F)c2F)n1	1.11	1.43	–	–	–
CN(C)CCNc1nc(NCc2cccc(F)c2)nc(Oc2c(F)c(F)c(F)c(F)c2F)n1	0.98	0.59	–	–	–
CCC(CO)Nc1nc(NCc2cccc(F)c2)nc(Oc2c(F)c(F)c(F)c(F)c2F)n1 (stereo not drawn)	1.06	1.39	–	–	–
CN(C)CCNc1nc(Oc2c(F)c(F)c(F)c(F)c2F)nc(N(C)Cc2cccc(F)c2)n1	1.15	1.97	–	–	–
Fc1cccc(CNc2nc(NCc3cccnc3)nc(Oc3c(F)c(F)c(F)c(F)c3F)n2)c1	0.92	0.94	–	–	–
